Source: patent US12569498B2, “Methods and compositions for the prevention and treatment of ischemia reperfusion injury and infection” (CHILDREN'S NATIONAL MEDICAL CENTER, priority 2019, dated 2026)
Entries after “also recorded” stand apart in the source; their conditions may differ.

Columns and labels:
α4β2nAChR = α4β2nAChR (Homo sapiens, UniProt P17787+P43681); conditions: systemic concentrations found with routine oral dosing in humans (Campling 2013); cited from earlier work
[1] = tested on: IRI markers and pro-fibrotic genes in kidney after CFT073 uropathogenic Escherichia coli pyelonephritis; test: Quantitative PCR of kidney after acute pyelonephritis (IRI markers, pro-fibrotic genes); format: in vivo, C3H/HeOuJ mice
Description: Methods: Using an established murine model, pyelonephritis was induced by inoculating the bladder of C3H/HeOuJ mice with a uropathogenic E. coli. Five days following inoculation, half of the animals were treated with 5 days of ceftriaxone and half were treated with 5 days of ceftriaxone plus varenicline in the initial 48 hours. Histology and the expression of ischemia reperfusion injury markers and pro-fibrotic genes were evaluated at 14 and 30 days following the initial infection.
To initiate pyelonephritis, the bladder was catheterized with a 24-gauge angiocatheter and a total volume of 100 μL of a phosphate-buffered saline containing […] colony forming units (CFU) of CFT073 uropathogenic Escherichia coli (UPEC) was then instilled.
[…] Real-time PCR was performed using QuantStudio 7 Flex (Applied Biosystems, Foster City, CA) with Software Quantstudio Real-Time PCR Software (Thermo Fisher Scientific, Waltham, MA) and TaqMan Gene Expression Assays (Applied Biosystems, Foster City, CA). Standard TaqMan primers were used for Complement 1 q B chain (C1qb, Mm01179619_m1), Lipocalin 2 (Lcn2, Mm01324470_m1), Serpina (Mm04213318_m1), Cathepsin S (Ctss, Mm01255859_m1), Vascular cell adhesion molecule 1 (Vcam1, Mm01320970_m1), Interleukin 1 beta (IL-1β, Mm00434228_m1), and Nitric oxide synthase 2 (Nos2, Mm00440502_m1) as short-term IRI markers and Collagen 1 (Col1, Mm00801666_g1), Collagen 3 (Col3, Mm01254476_m1), Vimentin (Vim, Mm01333430_m1), and Smooth muscle actin (Acta, Mm00725412_s1) to evaluate long-term fibrosis.

[2] = Warm ischemia of the hindlimb (flow cytometry, quantitative PCR, trichrome staining); format: in vivo; conditions: vs untreated controls
[3] = cited from earlier work
α7nAChR = α7nAChR (Homo sapiens, UniProt P36544); conditions: peak concentrations in smokers / levels with therapeutic dosing in humans (Campling 2013); cited from earlier work
Sequence of α7nAChR (P36544 23-502): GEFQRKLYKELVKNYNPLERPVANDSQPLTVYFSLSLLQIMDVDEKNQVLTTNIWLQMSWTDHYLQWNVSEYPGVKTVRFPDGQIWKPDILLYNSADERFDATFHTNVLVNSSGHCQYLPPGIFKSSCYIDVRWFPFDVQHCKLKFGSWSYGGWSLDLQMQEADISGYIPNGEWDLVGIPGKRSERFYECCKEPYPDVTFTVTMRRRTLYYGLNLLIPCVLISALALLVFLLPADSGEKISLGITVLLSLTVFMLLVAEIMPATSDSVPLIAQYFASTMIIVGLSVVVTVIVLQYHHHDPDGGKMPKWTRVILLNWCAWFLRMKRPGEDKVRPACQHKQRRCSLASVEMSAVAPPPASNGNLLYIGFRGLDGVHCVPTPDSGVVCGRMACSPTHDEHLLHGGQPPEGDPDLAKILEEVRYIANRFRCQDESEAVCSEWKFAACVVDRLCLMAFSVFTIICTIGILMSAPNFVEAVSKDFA

[4] = tested on: oxidative stress within the testis; test: Myeloperoxidase activity and reduced glutathione levels in testis after testicular torsion; format: in vivo, CD1 mice; conditions: varenicline 1 hour after onset of torsion, vs untreated controls; for reduced glutathione (GSH) levels in testis: 48 hours following reperfusion, P≤0.0742
Description: Mice underwent testicular torsion as previously described (Lysiak 2001). Briefly, mice were anesthetized with isoflurane over a heating pad. The right testis was delivered through a low scrotal incision and rotated counterclockwise 720 degrees to induce ischemia for 2 hours. […] All animals were injected with long-acting buprenorphine (0.1 mg/kg) for long-term pain control prior to being recovered from anesthesia. […] Mice kept for 30 days after surgery were weighed on a weekly basis.
Cytisine (Sigma-Aldrich, St. Louis, MO) was administered intraperitoneally at a dose of 0.1 μg/gram either 1 hour before torsion or 1 hour after torsion (1 hour prior to detorsion). Varenicline ([…]) was administered as an intraperitoneal injection one hour after the onset of torsion and then continued every 12 hours for a total of 4 doses.
Tissues were harvested and stored at −80° C. until use. Glutathione reductase activity was measured by use of glutathione reductase assay Kit (Sigma-Aldrich, St. Louis, MO). Testis tissue was homogenized in 5% sulfosalicylic Acid (SSA) solution. Samples were then centrifuged and supernatant was reserved. Supernatants were added to a reaction mixture containing 95 mM potassium phosphate buffer, pH 7.0, 0.95 mM EDTA, 0.038 mg/mL NADPH, 0.031 mg/mL DTNB, 0.115 units/mL glutathione reductase, and 0.24% SSA. Absorbance at 412 nm was recorded. Glutathione results were expressed as nm GSH per mL sample.
Following an ischemic event, the initial inflammatory response is characterized by an increase in oxidative stress and production of reactive oxygen species. In order to determine the effect of cytisine treatment on the level of reactive oxygen species (ROS) following testicular torsion, testicular levels of myeloperoxidase (MPO), a marker of neutrophil activation, and reduced glutathione (GSH) levels (an indirect measure of oxidative stress within the testis) were measured.

[5] = adolescents aged 12-16, of 75 patients (Faessel 2009)

Sequence of α4β2nAChR (P43681 29-627 limits assumed): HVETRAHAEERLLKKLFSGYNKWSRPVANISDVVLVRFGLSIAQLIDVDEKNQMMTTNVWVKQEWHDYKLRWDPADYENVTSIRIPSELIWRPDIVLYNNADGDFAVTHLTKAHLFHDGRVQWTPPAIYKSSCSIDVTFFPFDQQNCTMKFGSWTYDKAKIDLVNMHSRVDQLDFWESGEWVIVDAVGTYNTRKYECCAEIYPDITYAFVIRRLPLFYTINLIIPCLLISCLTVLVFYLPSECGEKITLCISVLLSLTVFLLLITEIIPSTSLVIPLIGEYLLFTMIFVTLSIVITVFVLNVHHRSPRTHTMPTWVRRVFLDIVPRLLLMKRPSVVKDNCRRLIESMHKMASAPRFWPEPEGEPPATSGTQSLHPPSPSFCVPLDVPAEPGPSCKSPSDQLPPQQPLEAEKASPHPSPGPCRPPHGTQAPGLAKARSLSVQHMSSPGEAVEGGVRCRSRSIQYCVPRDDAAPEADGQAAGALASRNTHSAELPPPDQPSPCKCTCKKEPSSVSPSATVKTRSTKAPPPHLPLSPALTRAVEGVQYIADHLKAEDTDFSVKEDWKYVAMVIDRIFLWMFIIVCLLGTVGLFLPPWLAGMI
Sequence of α4β2nAChR (P17787 26-502): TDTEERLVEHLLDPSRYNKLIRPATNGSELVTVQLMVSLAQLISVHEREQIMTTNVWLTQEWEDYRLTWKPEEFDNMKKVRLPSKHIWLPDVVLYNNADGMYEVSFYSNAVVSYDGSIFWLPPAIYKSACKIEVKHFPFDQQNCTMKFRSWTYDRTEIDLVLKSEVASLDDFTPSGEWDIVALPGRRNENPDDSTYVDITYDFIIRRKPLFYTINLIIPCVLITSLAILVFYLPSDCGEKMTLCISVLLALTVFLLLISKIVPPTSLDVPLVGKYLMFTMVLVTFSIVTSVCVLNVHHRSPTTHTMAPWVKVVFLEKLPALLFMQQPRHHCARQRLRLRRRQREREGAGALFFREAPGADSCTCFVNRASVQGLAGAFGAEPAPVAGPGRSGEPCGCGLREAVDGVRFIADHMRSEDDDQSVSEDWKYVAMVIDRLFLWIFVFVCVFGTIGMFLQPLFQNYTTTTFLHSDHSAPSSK

c1cnc2cc3c(cc2n1)C1CNCC3C1 [varenicline, 7,8,9, 10-tetrahydro-6, 10-methano-6H-pyrazino[2,3-h][3]benzazepine]
α4β2nAChR agonism (α4β2nAChR): strong α4β2nAChR and α7nAChR agonist | expression of established mediators (markers) of renal ischemia reperfusion injury ([1]; 14 days after inoculation, 5 days after completion of antibiotics, varenicline 1 mg/kg i.p. twice daily first 48 hours plus ceftriaxone vs ceftriaxone alone, difference not statistically significant): decreased expression of IRI markers | expression of pro-fibrotic genes (Col1, Col3, acta, vimentin) in kidney ([1]; 30 days following inoculation, 21 days after completion of antibiotics, varenicline plus ceftriaxone vs ceftriaxone alone): trend towards a decreased expression of pro-fibrotic genes; also recorded: long-term decrease; also recorded: decrease in expression of genes responsible for renal fibrosis | expression of vimentin in kidney ([1]; kidneys at 30 days, p-value of 0.03): Decrease in expression of vimentin | infiltration of leukocytes (flow cytometry) ([2]; 24 hours after warm ischemia of the hindlimb, P≤0.01): decreased infiltration of leukocytes | expression of pro-fibrotic genes (quantitative PCR) ([2]; 7 days after reperfusion of the limb): decreased expression of pro-fibrotic genes | collagen deposition in muscle fibers (trichrome staining) ([2]; 14 days following limb ischemia, P≤0.005): significant decrease in collagen deposition | incidence of neurocognitive side effects ([3]; adolescents aged 12-16 (Faessel 2009)): 3 out of 75 | abnormal dreams [3, 5]: 2 patients | transient mild anger [3, 5]: 1 patient | activation of α7nAChR at clinically reached concentrations (α7nAChR): α7nAChR agonist at concentrations found with therapeutic dosing in humans; also recorded: strong α4β2nAChR and α7nAChR agonist | reduced glutathione (GSH) levels in testis [4]: increased levels of reduced glutathione (GSH) | reduced glutathione (GSH) levels in testis ([4]; listed as Varenicline): preserved reduced glutathione levels | myeloperoxidase (MPO) activity in testis ([4]; P≤0.0013): decreased levels of MPO activity; also recorded: significantly decreased
